Laboratory results reported in patent publication US20250066328A1, “PARP7 INHIBITORS” (Gilead Sciences, Inc., priority 2023, published 2025).

What follows are molecules tested on STAT1 (phosphorylated at Tyr701) in NCI-H1373 cells (assay: Phospho-STAT1 (Tyr701) LANCE Ultra TR-FRET detection assay in NCI-H1373 cells). Settings: Homo sapiens, NCI-H1373, 48 h, 48 hours incubation, induction of pSTAT1, normalized to 10 uM positive control and DMSO, 4-parameter fit, read-out: NH1373 pSTAT1 EC50.
Format: cell-based
Method: Phospho-STAT1 (Tyr701 LANCE Ultra TR-FRET Detection Assay
LANCE Ultra phospho-STAT1 (Tyr701) kits are designed for the detection of phosphorylated STAT1 in cell lysates using a simple, homogeneous LANCE Ultra sandwich assay (Cat. #TRF4028M). This assay is intended for assessing compound induction of endogenous levels of cellular STAT1 (phosphorylated at Tyr701) in NCI-H1373 cells. The NCI-H1373 cells are cultured in RPMI 1640 media containing 10% heat inactivated FBS, GlutaMAX, 1% Penicillin-Streptomycin. An Echo acoustic liquid handler is used to transfer 60 nanoliters of compound dilutions using the Echo Qualified, 384-well polypropylene microplate clear flat bottom source plates into a Greiner (#781080) cell culture microplate. NCI-H1373 cells are seeded into these compound-spotted culture plates at 30,000 cells/well in a 60 uL volume in growth media. The plates are incubated in a 5% CO2 humidified incubator at 37° C. for 48 hours. […] Briefly, […] of supplemented lysis buffer is added to each well and allowed to shake for 1 hour at 400 rpm. Next, 5 ul of remixed antibody solutions (vol/vol) prepared in detection buffer are added to each well and allowed to incubate at room temperature overnight. After spinning the plate down at 300 rpm for 1 min, the plate is read on an EnVision plate reader set up for Eu^3+ Cryptate and fluorescence emission is measured at two different wavelengths (665 nm and 620 nm). The HTRF ratio is then calculated ([…]) for each well to determine the amount of pSTAT1 in the cell lysate, and the data is then normalized to 10 uM (S)-5-((1-(3-oxo-3-(4-(5-(trifluoromethyl)pyrimidin-2-yl)piperazin-1-yl)propoxy)propan-2-yl)amino)-4-(trifluoromethyl)pyridazin-3(2H)-one positive and DMSO negative controls. The values were then plotted as a function of compound concentration and a 4-parameter fit was applied to derive the EC50 values.
Molecule CC(C)(O)c1cnc(-c2cc3ccn(CCCC(COC(F)F)Oc4cn[nH]c(=O)c4C(F)(F)F)c(=O)c3cc2F)nc1 (stereo not drawn) [Example 33, 2-(5-(difluoromethoxy)-4-((6-oxo-5-(trifluoromethyl)-1,6-dihydropyridazin-4-yl)oxy)pentyl)-7-fluoro-6-(5-(2-hydroxypropan-2-yl)pyrimidin-2-yl)isoquinolin-1(2H)-one] has an EC50 of 23.3 nM. For C[C@@H](CC(F)Cn1cnc2cc(-c3ncc(C(F)(F)F)cn3)c(F)cc2c1=O)Oc1cn[nH]c(=O)c1C(F)(F)F (stereo partly drawn) [Example 36], the EC50 was 10.8 nM. C[C@@H](CC(F)Cn1ccc2cc(-c3ncc(C(C)(C)O)cn3)c(F)cc2c1=O)Oc1cn[nH]c(=O)c1C(F)(F)F (stereo partly drawn) [Example 37] gave an EC50 of 4.11 nM. Work on C[C@@H](CC(F)Cn1cnc2cc(-c3ncc(C(C)(C)O)cn3)c(F)cc2c1=O)Oc1cn[nH]c(=O)c1C(F)(F)F (stereo partly drawn) [Example 38] yielded an EC50 of 42.4 nM. With C[C@@H](C[C@@H](F)Cn1cnc2cc(-c3ncc(C(F)(F)F)cn3)c(F)cc2c1=O)Oc1cn[nH]c(=O)c1C(F)(F)F [Example 39] the EC50 was 1.49 nM. Molecule COc1cnc(-c2cc3ccn(C[C@H](F)C[C@H](C)Oc4cn[nH]c(=O)c4C(F)(F)F)c(=O)c3cc2F)nc1N [Example 40] has an EC50 of 14.7 nM. C[C@@H](C[C@@H](F)Cn1ccc2cc(-c3ncc(S(C)(=O)=O)cn3)c(F)cc2c1=O)Oc1cn[nH]c(=O)c1C(F)(F)F [Example 41] was tested, and the EC50 was 402 nM. C[C@@H](C[C@@H](F)Cn1ccc2cc(-c3ncc(C(F)F)c(N)n3)c(F)c(F)c2c1=O)Oc1cn[nH]c(=O)c1C(F)(F)F [Example 42] gave an EC50 of 0.836 nM. COc1cnc(-c2cc3ccn(C[C@H](F)C[C@H](C)Oc4cn[nH]c(=O)c4C(F)(F)F)c(=O)c3c(F)c2F)nc1 [Example 44] showed an EC50 of 0.375 nM. COc1cnc(-c2cc3ccn(C[C@H](F)C[C@H](C)Oc4cn[nH]c(=O)c4C(F)(F)F)c(=O)c3cc2F)nc1 [Example 45] showed an EC50 of 1.01 nM. For C[C@@H](C[C@@H](F)Cn1ccc2cc(-c3ncc(C(C)(F)F)cn3)c(F)c(F)c2c1=O)Oc1cn[nH]c(=O)c1C(F)(F)F [Example 46], the EC50 was 0.667 nM. In the case of C[C@@H](C[C@@H](F)Cn1ccc2cc(-c3ncc(C(F)(F)F)cn3)c(F)c(F)c2c1=O)Oc1cn[nH]c(=O)c1C(F)(F)F [Example 47], the EC50 is reported as 0.814 nM. C[C@@H](C[C@@H](F)Cn1ccc2cc(-c3ncc(C(F)F)cn3)c(F)cc2c1=O)Oc1cn[nH]c(=O)c1C(F)(F)F [Example 48] gave an EC50 of 1.05 nM. Work on C[C@@H](C[C@@H](F)Cn1ccc2cc(-c3ncc(C(F)F)cn3)c(F)c(F)c2c1=O)Oc1cn[nH]c(=O)c1C(F)(F)F [Example 50] yielded an EC50 of 0.46 nM. C[C@@H](C[C@@H](F)Cn1cc(F)c2cc(-c3ncc(C(F)F)cn3)c(F)cc2c1=O)Oc1cn[nH]c(=O)c1C(F)(F)F [Example 52] showed an EC50 of 67.9 nM. Work on COc1cnc(-c2cc3c(F)cn(C[C@H](F)C[C@H](C)Oc4cn[nH]c(=O)c4C(F)(F)F)c(=O)c3cc2F)nc1 [Example 53] yielded an EC50 of 202 nM. Work on C[C@@H](C[C@@H](F)Cn1cc(F)c2cc(-c3ncc(C(F)F)c(N)n3)c(F)cc2c1=O)Oc1cn[nH]c(=O)c1C(F)(F)F [Example 54] yielded an EC50 of 23.7 nM. For C[C@@H](C[C@@H](F)Cn1cc(F)c2cc(-c3ncc(C(F)(F)F)cn3)c(F)cc2c1=O)Oc1cn[nH]c(=O)c1C(F)(F)F [Example 55], the EC50 was 135 nM. For C[C@@H](C[C@H](F)Cn1cnc2cc(-c3ncc(C(F)(F)F)cn3)c(F)cc2c1=O)Oc1cn[nH]c(=O)c1C(F)(F)F [Example 58], the EC50 was 35.3 nM. Work on COc1cnc(-c2cc3ccn(C[C@@H](F)C[C@H](C)Oc4cn[nH]c(=O)c4C(F)(F)F)c(=O)c3cc2F)nc1N [Example 59] yielded an EC50 of 1.21 nM. Molecule C[C@@H](C[C@H](F)Cn1ccc2cc(-c3ncc(S(C)(=O)=O)cn3)c(F)cc2c1=O)Oc1cn[nH]c(=O)c1C(F)(F)F [Example 60] has an EC50 of 10.2 nM. With C[C@@H](C[C@H](F)Cn1cc(F)c2cc(-c3ncc(C(F)F)cn3)c(F)cc2c1=O)Oc1cn[nH]c(=O)c1C(F)(F)F [Example 62] the EC50 was 1.69 nM. COc1cnc(-c2cc3c(F)cn(C[C@@H](F)C[C@H](C)Oc4cn[nH]c(=O)c4C(F)(F)F)c(=O)c3cc2F)nc1 [Example 63] gave an EC50 of 2.05 nM. Molecule C[C@@H](C[C@H](F)Cn1cc(F)c2cc(-c3ncc(C(F)F)c(N)n3)c(F)cc2c1=O)Oc1cn[nH]c(=O)c1C(F)(F)F [Example 64] has an EC50 of 0.42 nM. C[C@@H](C[C@H](F)Cn1cc(F)c2cc(-c3ncc(C(F)(F)F)cn3)c(F)cc2c1=O)Oc1cn[nH]c(=O)c1C(F)(F)F [Example 65] gave an EC50 of 2.85 nM. Work on C[C@@H](C[C@H](F)Cn1cc(F)c2cc(-c3ncc(C(C)(C)O)cn3)c(F)cc2c1=O)Oc1cn[nH]c(=O)c1C(F)(F)F [Example 66] yielded an EC50 of 91.6 nM. COc1cnc(-c2cc3ncn(C[C@@H](F)C[C@H](C)Oc4cn[nH]c(=O)c4C(F)(F)F)c(=O)c3cc2F)nc1 [Example 67] showed an EC50 of 3.44 nM. In the case of C[C@@H](C[C@@H](F)Cn1cc(Br)c2cc(-c3ncc(C(C)(C)O)cn3)c(F)cc2c1=O)Oc1cn[nH]c(=O)c1C(F)(F)F [Example 68, 4-bromo-7-fluoro-2-((2R,4S)-2-fluoro-4-((6-oxo-5-(trifluoromethyl)-1,6-dihydropyridazin-4-yl)oxy)pentyl)-6-(5-(2-hydroxypropan-2-yl)pyrimidin-2-yl)isoquinolin-1(2H)-one], the EC50 is reported as 3.7 nM. Work on C[C@@H](C[C@@H](F)Cn1cnc2cc(-c3ncc(C(F)F)c(N)n3)c(F)cc2c1=O)Nc1cn[nH]c(=O)c1C(F)(F)F [Example 69] yielded an EC50 of 19 nM. For C[C@@H](C[C@@H](F)Cn1cnc2cc(-c3ncc(C(F)F)cn3)c(F)cc2c1=O)Nc1cn[nH]c(=O)c1C(F)(F)F [Example 70], the EC50 was 3.31 nM. With C[C@@H](C[C@@H](F)Cn1cnc2cc(-c3ncc(C(F)(F)F)cn3)c(F)cc2c1=O)Nc1cn[nH]c(=O)c1C(F)(F)F [Example 71] the EC50 was 2.17 nM. For C[C@@H](C[C@@H](F)Cn1ccc2cc(-c3cc[nH]n3)c(F)cc2c1=O)Nc1cn[nH]c(=O)c1C(F)(F)F [Example 73], the EC50 was 136 nM. With C[C@@H](C[C@@H](F)Cn1ccc2cc(-c3ccccn3)c(F)cc2c1=O)Nc1cn[nH]c(=O)c1C(F)(F)F [Example 74] the EC50 was 6.56 nM. In the case of C[C@@H](C[C@@H](F)Cn1ccc2cc(-c3ncc(C(F)(F)F)cc3F)c(F)cc2c1=O)Nc1cn[nH]c(=O)c1C(F)(F)F [Example 75], the EC50 is reported as 4.51 nM. For C[C@@H](C[C@@H](F)Cn1ccc2cc(-c3ccc(C(F)(F)F)cn3)c(F)cc2c1=O)Nc1cn[nH]c(=O)c1C(F)(F)F [Example 76], the EC50 was 2.59 nM. With C[C@@H](C[C@@H](F)Cn1ccc2cc(-c3ncc(OC(F)(F)F)cn3)c(F)cc2c1=O)Nc1cn[nH]c(=O)c1C(F)(F)F [Example 77] the EC50 was 2.5 nM. C[C@@H](C[C@@H](F)Cn1ccc2cc(-c3ncc(OCC#N)cn3)c(F)cc2c1=O)Nc1cn[nH]c(=O)c1C(F)(F)F [Example 78] gave an EC50 of 192 nM. C[C@@H](C[C@@H](F)Cn1ccc2cc(-c3ncc(C(O)C(F)(F)F)cn3)c(F)cc2c1=O)Nc1cn[nH]c(=O)c1C(F)(F)F (stereo partly drawn) [Example 79] showed an EC50 of 5.05 nM. C[C@@H](C[C@@H](F)Cn1ccc2cc(-c3ncc([C@@H](O)C(F)F)cn3)c(F)cc2c1=O)Nc1cn[nH]c(=O)c1C(F)(F)F [Example 80] showed an EC50 of 7.89 nM. Work on C[C@@H](C[C@@H](F)Cn1ccc2cc(-c3ncc([C@H](O)C(F)F)cn3)c(F)cc2c1=O)Nc1cn[nH]c(=O)c1C(F)(F)F [Example 81] yielded an EC50 of 5.83 nM. Molecule C[C@@H](C[C@@H](F)Cn1ccc2cc(-c3ncc(OC(F)(F)CO)cn3)c(F)cc2c1=O)Nc1cn[nH]c(=O)c1C(F)(F)F [Example 82] has an EC50 of 2.15 nM. For C[C@@H](C[C@@H](F)Cn1ccc2cc(-c3ncc(C(C)(O)C(F)(F)F)cn3)c(F)cc2c1=O)Nc1cn[nH]c(=O)c1C(F)(F)F (stereo partly drawn) [Example 84], the EC50 was 2.79 nM. C[C@@H](C[C@@H](F)Cn1ccc2cc(-c3ncc(C(F)(F)CO)cn3)c(F)cc2c1=O)Nc1cn[nH]c(=O)c1C(F)(F)F [Example 85] was tested, and the EC50 was 4.39 nM. C[C@@H](C[C@@H](F)Cn1ccc2cc(-c3ncc([C@@](C)(O)C(F)F)cn3)c(F)cc2c1=O)Nc1cn[nH]c(=O)c1C(F)(F)F [Example 86] showed an EC50 of 10.1 nM. With C[C@@H](C[C@@H](F)Cn1ccc2cc(-c3ncc([C@](C)(O)C(F)F)cn3)c(F)cc2c1=O)Nc1cn[nH]c(=O)c1C(F)(F)F [Example 87] the EC50 was 5.36 nM. C[C@@H](C[C@@H](F)Cn1ccc2cc(-c3ncc(C(C)(C)C)cn3)c(F)cc2c1=O)Nc1cn[nH]c(=O)c1C(F)(F)F [Example 88] was tested, and the EC50 was 1.29 nM. For C[C@@H](C[C@@H](F)Cn1ccc2cc(-c3ncc4c(n3)NC(=O)C4(C)C)c(F)cc2c1=O)Nc1cn[nH]c(=O)c1C(F)(F)F [Example 89], the EC50 was 12 nM. With C[C@@H](C[C@@H](F)Cn1ccc2cc(-c3ncc4c(n3)COC4(C)C)c(F)cc2c1=O)Nc1cn[nH]c(=O)c1C(F)(F)F [Example 90] the EC50 was 4.33 nM.
